PubChem BioAssay AID1963963 (Molecular Pharmacology Branch, DTP, NCI, 2024)

Test system: 958667-338-R-J2-PDC tumor spheroids viability
Assay: Anticancer human tumor 958667-338-R-J2-PDC patient-derived colon adenocarcinoma cell line growth inhibition [PI3K]
Conditions: spheroids with HUVEC and MSC; for IC50: curve of first compound; for viability, T/C: stronger effect = lower value
Summary of the method: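 Spheroid viability read-out. Co-cultures contained the tumor line plus HUVEC and human MSCs. Each agent was paired with a PI3K inhibitor (inavolisib, alpelisib, duvelisib, copanlisib) across half-log dilutions starting at clinical Cmax, or at 10 microM when Cmax was unknown.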

[1] = second compound 0.0316 µM, first compound 0.0316 µM
[2] = second compound 0.0316 µM, first compound 0.1 µM
[3] = second compound 0.0316 µM, first compound 0.316 µM
[4] = second compound 0.0316 µM, first compound 1 µM
[5] = second compound 0.0316 µM, first compound 3.16 µM
[6] = second compound 0.0316 µM, first compound 10 µM
[7] = second compound 0.1 µM, first compound 0.0316 µM
[8] = second compound 0.1 µM, first compound 0.1 µM
[9] = second compound 0.1 µM, first compound 0.316 µM
[10] = second compound 0.1 µM, first compound 1 µM
[11] = second compound 0.1 µM, first compound 3.16 µM
[12] = second compound 0.1 µM, first compound 10 µM
[13] = second compound 0.316 µM, first compound 0.0316 µM
[14] = second compound 0.316 µM, first compound 0.1 µM
[15] = second compound 0.316 µM, first compound 0.316 µM
[16] = second compound 0.316 µM, first compound 1 µM
[17] = second compound 0.316 µM, first compound 3.16 µM
[18] = second compound 0.316 µM, first compound 10 µM
[19] = second compound 1 µM, first compound 0.0316 µM
[20] = second compound 1 µM, first compound 0.1 µM
[21] = second compound 1 µM, first compound 0.316 µM
[22] = second compound 1 µM, first compound 1 µM
[23] = second compound 1 µM, first compound 3.16 µM
[24] = second compound 1 µM, first compound 10 µM
[25] = second compound 3.16 µM, first compound 0.0316 µM
[26] = second compound 3.16 µM, first compound 0.1 µM
[27] = second compound 3.16 µM, first compound 0.316 µM
[28] = second compound 3.16 µM, first compound 1 µM
[29] = second compound 3.16 µM, first compound 3.16 µM
[30] = second compound 3.16 µM, first compound 10 µM
[31] = second compound 10 µM, first compound 0.0316 µM
[32] = second compound 10 µM, first compound 0.1 µM
[33] = second compound 10 µM, first compound 0.316 µM
[34] = second compound 10 µM, first compound 1 µM
[35] = second compound 10 µM, first compound 3.16 µM
[36] = second compound 10 µM, first compound 10 µM
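Note: spheroids exposed to compounds for seven days before readout.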

`C#Cc1c(F)ccc2cc(O)cc(-c3ncc4c(N5CC6CCC(C5)N6)nc(OCC56CCCN5CC(F)C6)nc4c3F)c12` (centres undefined) + CC(Nc1ncnc2nc[nH]c12)c1cc2cccc(Cl)c2c(=O)n1-c1ccccc1 was tested, and the IC50 (second compound 0.0316 µM) was greater than 10 µM, the IC50 (second compound 0.1 µM) was greater than 10 µM and the IC50 (second compound 0.316 µM) was greater than 10 µM. The IC50 (second compound 1 µM) was greater than 10 µM, the IC50 (second compound 3.16 µM) was 7.83 µM and the IC50 (second compound 10 µM) was 8.56 µM. The viability, T/C [1] was 104%, the viability, T/C [2] was 99.2% and the viability, T/C [3] was 109%. The viability, T/C [4] was 84.9%, the viability, T/C [5] was 97.5% and the viability, T/C [6] was 69.7%. For the same compound, the viability, T/C [7] was 102%, the viability, T/C [8] was 109% and the viability, T/C [9] was 86.8%. The viability, T/C [10] was 104%, the viability, T/C [11] was 85.2% and the viability, T/C [12] was 77.5%. It also gave a viability, T/C [13] of 84%, a viability, T/C [14] of 99.3% and a viability, T/C [15] of 93.5%. For the same compound, the viability, T/C [16] was 92.8%, the viability, T/C [17] was 93.9% and the viability, T/C [18] was 63.5%. It also gave a viability, T/C [19] of 77.4%, a viability, T/C [20] of 101% and a viability, T/C [21] of 90.9%. It also gave a viability, T/C [22] of 84.8%, a viability, T/C [23] of 106% and a viability, T/C [24] of 65.1%. The viability, T/C [25] was 91.4%, the viability, T/C [26] was 94.2% and the viability, T/C [27] was 85.3%. It also gave a viability, T/C [28] of 76.5%, a viability, T/C [29] of 73.2% and a viability, T/C [30] of 43.6%. The viability, T/C [31] was 86.3%, the viability, T/C [32] was 83.2% and the viability, T/C [33] was 73.1%. For the same compound, the viability, T/C [34] was 86.9%, the viability, T/C [35] was 71.5% and the viability, T/C [36] was 46.4%.

For `C=CC(=O)N1CCN(c2nc(=O)n(-c3c(C)ccnc3C(C)C)c3nc(-c4c(O)cccc4F)c(F)cc23)C(C)C1` (centres undefined) + CC(Nc1ncnc2nc[nH]c12)c1cc2cccc(Cl)c2c(=O)n1-c1ccccc1, the IC50 (second compound 0.0316 µM) was greater than 10 µM, the IC50 (second compound 0.1 µM) was greater than 10 µM and the IC50 (second compound 0.316 µM) was greater than 10 µM. The IC50 (second compound 1 µM) was greater than 10 µM, the IC50 (second compound 3.16 µM) was greater than 10 µM and the IC50 (second compound 10 µM) was greater than 10 µM. For the same compound, the viability, T/C [1] was 118%, the viability, T/C [2] was 117% and the viability, T/C [3] was 104%. For the same compound, the viability, T/C [4] was 109%, the viability, T/C [5] was 130% and the viability, T/C [6] was 127%. It also gave a viability, T/C [7] of 106%, a viability, T/C [8] of 118% and a viability, T/C [9] of 112%. It also gave a viability, T/C [10] of 104%, a viability, T/C [11] of 118% and a viability, T/C [12] of 98%. For the same compound, the viability, T/C [13] was 116%, the viability, T/C [14] was 90.8% and the viability, T/C [15] was 93.6%. It also gave a viability, T/C [16] of 149%, a viability, T/C [17] of 116% and a viability, T/C [18] of 96.8%. It also gave a viability, T/C [19] of 108%, a viability, T/C [20] of 106% and a viability, T/C [21] of 85.9%. The viability, T/C [22] was 96.5%, the viability, T/C [23] was 123% and the viability, T/C [24] was 120%. For the same compound, the viability, T/C [25] was 89.8%, the viability, T/C [26] was 88.1% and the viability, T/C [27] was 99.9%. For the same compound, the viability, T/C [28] was 125%, the viability, T/C [29] was 112% and the viability, T/C [30] was 111%. For the same compound, the viability, T/C [31] was 93.3%, the viability, T/C [32] was 90.3% and the viability, T/C [33] was 115%. The viability, T/C [34] was 104%, the viability, T/C [35] was 101% and the viability, T/C [36] was 105%.
